35 compounds from patent publication US20060084688A1, “Aromatic sulfone hydroxamic acid metalloprotease inhibitor” (priority 1997, published 2006) can be followed below.

Each structure is given as a SMILES string.

The conditions of data set [1]: for Blood Level @ 3 min / BA / Blood Level @ 6 hr: rat, in vivo, 20 mg/kg; for BA / Blood Level @ 6 hr: po; for t1/2: Rat Intraveneous, 20 mpk.
The target of data set [2] is T1, recombinant human MMP-2 (Homo sapiens, UniProt P08253).
T1 sequence (P08253 110-660): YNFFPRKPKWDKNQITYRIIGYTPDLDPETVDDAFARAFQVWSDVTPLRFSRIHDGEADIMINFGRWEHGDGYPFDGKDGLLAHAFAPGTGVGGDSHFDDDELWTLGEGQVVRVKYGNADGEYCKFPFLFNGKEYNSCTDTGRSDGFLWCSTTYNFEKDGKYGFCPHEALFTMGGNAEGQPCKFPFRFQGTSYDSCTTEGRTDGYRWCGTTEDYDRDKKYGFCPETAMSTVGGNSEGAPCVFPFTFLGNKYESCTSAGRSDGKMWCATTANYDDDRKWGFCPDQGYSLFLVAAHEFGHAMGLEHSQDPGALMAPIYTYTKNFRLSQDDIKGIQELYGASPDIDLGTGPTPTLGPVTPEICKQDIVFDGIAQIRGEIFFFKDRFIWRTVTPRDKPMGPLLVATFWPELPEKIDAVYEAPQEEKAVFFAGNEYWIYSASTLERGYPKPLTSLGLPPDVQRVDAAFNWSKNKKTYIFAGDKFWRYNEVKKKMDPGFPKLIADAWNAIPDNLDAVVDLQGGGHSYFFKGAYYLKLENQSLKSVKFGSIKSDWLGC
Put plainly: biochemical. The conditions noted are these: Inhibition Table B.

The target of data set [3] is recombinant human MMP-13 (Homo sapiens, UniProt P45452). Put plainly: biochemical. The conditions noted are these: Inhibition Table B.
Data set [4] addresses T2, recombinant human MMP-1 (Homo sapiens, UniProt P03956).
T2 construct: made in house; host or cells: transfected HT-1080 cells
T2 sequence (P03956 100-469): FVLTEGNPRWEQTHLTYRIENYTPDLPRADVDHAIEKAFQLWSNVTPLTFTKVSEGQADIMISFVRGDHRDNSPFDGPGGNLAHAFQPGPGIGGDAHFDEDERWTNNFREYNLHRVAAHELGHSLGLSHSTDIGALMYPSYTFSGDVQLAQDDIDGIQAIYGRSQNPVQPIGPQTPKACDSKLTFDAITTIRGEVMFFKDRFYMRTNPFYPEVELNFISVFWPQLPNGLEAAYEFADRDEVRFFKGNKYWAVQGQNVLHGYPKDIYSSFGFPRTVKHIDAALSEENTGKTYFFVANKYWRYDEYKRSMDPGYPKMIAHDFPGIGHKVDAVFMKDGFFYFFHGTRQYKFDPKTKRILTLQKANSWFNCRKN
Nature of the data set: biochemical. The conditions noted are these: Inhibition Table B.

As for `CC(=O)N1CCC(C(=O)NO)(S(=O)(=O)c2ccc(Oc3ccccc3)cc2)CC1` [Example 12, 1-acetyl-N-hydroxy-4-[(4-phenoxyphenyl)sulfonyl]-4-piperidinecarboxamide], in data set [1], the “Blood Level @ 3 min” value came out at 73.54 µg/mL, the BA stood at 11.1% and the “Blood Level @ 6 hr” value was 0.121 µg/mL.

For `Cl.O=C(NO)C1(S(=O)(=O)c2ccc(Oc3ccccc3)cc2)CCN(C2CC2)CC1` [Example 17, 1-cyclopropyl-N-hydroxy-4-[(4-phenoxyphenyl)sulfonyl]-4-piperidinecarboxamide], in data set [1], the “Blood Level @ 3 min” value amounted to 63.44 µg/mL, the BA came to 35.9% and the “Blood Level @ 6 hr” value amounted to 0.135 µg/mL.

On to `Cl.O=C(NO)C1(S(=O)(=O)c2ccc(Sc3ccccc3)cc2)CCN(C2CC2)CC1` [Example 32, 1-cyclopropyl-N-hydroxy-4-[[4-(phenylthio)phenyl]sulfonyl]-4-piperidine carboxamide, monohydrochloride], for which the t1/2 in data set [1] worked out at 1.03 h.

As to `CN1CCC(C(=O)NO)(S(=O)(=O)c2ccc(Sc3ccccc3)cc2)CC1.Cl` [Example 33, N-hydroxy-1-methyl-4-[[4-(phenylthio)phenyl]sulfonyl]-4-piperidinecarboxamide, monohydrochloride], the t1/2 in data set [1] turned out to be 1.91 h.

What is called IC50 is the point on the concentration scale where inhibition reaches its midpoint. `O=C(C1CCN(c2ccc(S(=O)(=O)C3(C(=O)NO)CCOCC3)cc2)CC1)N1CCC(N2CCCC2)CC1` [Example 178]: the 50% inhibitory concentration (IC50) in data set [2] is 540 nM; in data set [3], above 100 nM; in data set [4] it was above 10 µM.

In the case of `C=CCN(CC=C)C(=O)C1CCN(c2ccc(S(=O)(=O)C3(C(=O)NO)CCOCC3)cc2)CC1` [Example 182], the half-inhibitory concentration (IC50) in data set [2] was 240 nM; in data set [3], 4 nM; in data set [4], above 10 µM.

`CN(C)CCCN(CCCN(C)C)C(=O)C1CCN(c2ccc(S(=O)(=O)C3(C(=O)NO)CCOCC3)cc2)CC1` [Example 183]: the IC50 in data set [2] was 288 nM; in data set [3], 40 nM; in data set [4], above 10 µM.

With `CC(C)NC(=O)C1CCN(c2ccc(S(=O)(=O)C3(C(=O)NO)CCOCC3)cc2)CC1` [Example 184], the concentration for half-maximal inhibition (IC50) in data set [2] was 94 nM; in data set [3], 7 nM; in data set [4], above 10 µM.

Regarding `O=C(NN1CCOCC1)C1CCN(c2ccc(S(=O)(=O)C3(C(=O)NO)CCOCC3)cc2)CC1` [Example 185], the IC50 in data set [2] was 210 nM; in data set [3], 17.5 nM; in data set [4] it was above 10 µM.

`O=C(NCc1cccnc1)C1CCN(c2ccc(S(=O)(=O)C3(C(=O)NO)CCOCC3)cc2)CC1` [Example 186]: the figures for the IC50 in data set [2], in data set [3] and in data set [4] were 120 nM, 10 nM and above 10 µM, respectively.

`O=C(NC1CCCCC1)C1CCN(c2ccc(S(=O)(=O)C3(C(=O)NO)CCOCC3)cc2)CC1` [Example 187]: the figures for the half-inhibitory concentration (IC50) in data set [2], in data set [3] and in data set [4] were 290 nM, 12.1 nM and above 10 µM, respectively.

For the compound `O=C(NC1CCc2ccccc21)C1CCN(c2ccc(S(=O)(=O)C3(C(=O)NO)CCOCC3)cc2)CC1` (centres unmarked) [Example 188], the IC50 in data set [2] was 350 nM; in data set [3] it was 9.4 nM; in data set [4], above 10 µM.

As to `O=C(NCc1cccs1)C1CCN(c2ccc(S(=O)(=O)C3(C(=O)NO)CCOCC3)cc2)CC1` [Example 189], the IC50 in data set [2] turned out to be 94 nM; in data set [3] it was 8 nM; in data set [4], 3.7 µM.

In the case of `CC1CCN(C(=O)C2CCN(c3ccc(S(=O)(=O)C4(C(=O)NO)CCOCC4)cc3)CC2)CC1` [Example 190], the half-maximal inhibitory concentration (IC50) in data set [2] was 220 nM; in data set [3], 10.6 nM; in data set [4], above 10 µM.

As for `O=C(C1CCN(c2ccc(S(=O)(=O)C3(C(=O)NO)CCOCC3)cc2)CC1)N1CCC(Cc2ccccc2)CC1` [Example 191], the half-inhibitory concentration (IC50) in data set [2] was 350 nM; in data set [3] it was 4 nM; in data set [4] it was above 10 µM.

For the compound `O=C(C1CCN(c2ccc(S(=O)(=O)C3(C(=O)NO)CCOCC3)cc2)CC1)N1CCC(c2ccccc2)CC1` [Example 192], the concentration for half-maximal inhibition (IC50) in data set [2] is 330 nM; in data set [3] it was 10 nM; in data set [4], above 10 µM.

As to `O=C(C1CCN(c2ccc(S(=O)(=O)C3(C(=O)NO)CCOCC3)cc2)CC1)N1CCC(O)(Cc2ccccc2)CC1` [Example 193], the IC50 in data set [2] was 390 nM; in data set [3], 6 nM; in data set [4] it was above 10 µM.

Take `O=C(NCc1ccccn1)C1CCN(c2ccc(S(=O)(=O)C3(C(=O)NO)CCOCC3)cc2)CC1` [Example 196]: the results for the IC50 in data set [2], in data set [3] and in data set [4] were 240 nM, 25 nM and above 10 µM, respectively.

Turning to `O=C(C1CCN(c2ccc(S(=O)(=O)C3(C(=O)NO)CCOCC3)cc2)CC1)N(Cc1ccccc1)Cc1ccccc1` [Example 198], the half-maximal inhibitory concentration (IC50) in data set [2] is 270 nM; in data set [3], 14.5 nM; in data set [4], above 10 µM.

Turning to `O=C(C1CCN(c2ccc(S(=O)(=O)C3(C(=O)NO)CCOCC3)cc2)CC1)N1CCc2ccccc2C1` [Example 199], the IC50 is 155 nM in data set [2], 1.4 nM in data set [3] and above 10 µM in data set [4].

With `O=C(C1CCCCCC1)N1CCN(c2ccc(S(=O)(=O)C3(C(=O)NO)CCOCC3)cc2)CC1` [Example 202], the IC50 in data set [2] is 54 nM; in data set [3], 9.15 nM; in data set [4] it was above 10 µM.

Consider `O=C([C@@H]1CCCN1)N1CCN(c2ccc(S(=O)(=O)C3(C(=O)NO)CCOCC3)cc2)CC1` [Example 203], for which the half-inhibitory concentration (IC50) in data set [2] is 31 nM; in data set [3], 30 nM; in data set [4] it was 8.5 µM.

For `CC(C)[C@H](N)C(=O)N1CCN(c2ccc(S(=O)(=O)C3(C(=O)NO)CCOCC3)cc2)CC1` [Example 204], the figures for the IC50 in data set [2], in data set [3] and in data set [4] were 25 nM, 27.1 nM and above 10 µM, respectively.

As for `O=C(Oc1ccc([N+](=O)[O-])cc1)N1CCN(c2ccc(S(=O)(=O)C3(C(=O)NO)CCOCC3)cc2)CC1` [Example 205], the half-maximal inhibitory concentration (IC50) is 12.7 nM in data set [2], 2 nM in data set [3] and 7.3 µM in data set [4].

For `CN(C)C(=O)N1CCN(c2ccc(S(=O)(=O)C3(C(=O)NO)CCOCC3)cc2)CC1` [Example 208], the figures for the half-inhibitory concentration (IC50) in data set [2], in data set [3] and in data set [4] were 27 nM, 27 nM and above 10 µM, respectively.

On to `O=C(N1CCNCC1)N1CCN(c2ccc(S(=O)(=O)C3(C(=O)NO)CCOCC3)cc2)CC1` [Example 209], for which the IC50 in data set [2] is 19 nM; in data set [3], 20 nM; in data set [4], above 10 µM.

With `CN1CCN(C(=O)N2CCN(c3ccc(S(=O)(=O)C4(C(=O)NO)CCOCC4)cc3)CC2)CC1` [Example 210], the IC50 in data set [2] is 27 nM; in data set [3], 20 nM; in data set [4], above 10 µM.

Regarding `CCOC(=O)C1CCN(C(=O)N2CCN(c3ccc(S(=O)(=O)C4(C(=O)NO)CCOCC4)cc3)CC2)CC1` [Example 211], the IC50 is 33 nM in data set [2], 24 nM in data set [3] and above 10 µM in data set [4].

In the case of `CCOC(=O)C1CCCN(C(=O)N2CCN(c3ccc(S(=O)(=O)C4(C(=O)NO)CCOCC4)cc3)CC2)C1` (centres unmarked) [Example 212], the 50% inhibitory concentration (IC50) in data set [2] was 33 nM; in data set [3] it was 20 nM; in data set [4] it was above 10 µM.

Turning to `O=C(NO)C1(S(=O)(=O)c2ccc(-c3cccc([N+](=O)[O-])c3)cc2)CCOCC1` [Example 214], the IC50 in data set [2] was below 1 nM; in data set [3], below 1 nM; in data set [4], 1.1 µM.

For the compound `O=C(NO)C1(S(=O)(=O)c2ccc(-c3ccc(Cl)cc3)cc2)CCOCC1` [Example 216], the IC50 was below 1 nM in data set [2], below 1 nM in data set [3] and 1 µM in data set [4].

Regarding `O=C(NO)C1(S(=O)(=O)c2ccc(-c3ccc(C(F)(F)F)cc3)cc2)CCOCC1` [Example 221], the figures for the IC50 in data set [2], in data set [3] and in data set [4] were below 1 nM, below 1 nM and 1.6 µM, respectively.

As for `Cc1cc(-c2ccc(S(=O)(=O)C3(C(=O)NO)CCOCC3)cc2)ccc1F` [Example 222], the IC50 is below 1 nM in data set [2], below 1 nM in data set [3] and 0.1 µM in data set [4].

On to `Cc1ccc(-c2ccc(S(=O)(=O)C3(C(=O)NO)CCOCC3)cc2)cc1C` [Example 223], for which the IC50 was below 1 nM in data set [2], below 1 nM in data set [3] and 1.1 µM in data set [4].

For the compound `O=C(NO)C1(S(=O)(=O)c2ccc(-c3cc4ccccc4o3)cc2)CCOCC1` [Example 229], the IC50 in data set [2] is below 1 nM; in data set [3], below 1 nM; in data set [4], above 10 µM.
